Consider 18 compounds from US20150368242A1, “NOVEL TETRAHYDROPYRIDOPYRIMIDINONE DERIVATIVE” (Ajinomoto Co., Inc., priority 2013, published 2015).

The assay deals with T1, recombinant human MGAT2 enzyme (Homo sapiens, UniProt Q3SYC2).
T1 construct: made in house; host or cells: CHO-K1 (Jump-In CHO-K1 Kit, Life Technologies); microsomal fraction used as the enzyme solution
Kind of assay: Test for human MGAT2 activity inhibitory action (14C-oleoyl CoA, recombinant enzyme microsomes). In kind it is biochemical. On the set-up: key to Potency relative to Comparative Example 1 (higher = more potent): % inhibition = {1−(C−B)/(A−B)}×100, B = 10 μM Comparative Example 1. Conditions: for IC50: read-out: IC50. The procedure:
The human MGAT2 gene described in Am. J. Physiol. Endocrinol. Metab. 285: E927-E937, 2003 was expressed using Jump-In™ CHO-K1 Kit (Life technologies) as described in the attached manual. The cells were suspended in a buffer containing Tris-hydrochloric acid (pH 7.4) at a final concentration of 1 mM, 1 mM ethylenediaminetetraacetic acid, 1 mM dithiothreitol, 250 mM sucrose, and complete protease inhibitor cocktail (Roche applied Science), and then disrupted using a Teflon homogenizer (AS ONE Corporation), followed by centrifugation at 130 g for 10 minutes. The supernatant was further centrifuged at 100,000 g for 1 hour to obtain a pellet as microsomes containing the recombinant enzyme, and a solution obtained by suspending this pellet at a protein concentration of about 800 to 1900 μg/ml was used as an MGAT recombinant enzyme solution.
To a buffer containing 50 mM Tris-hydrochloric acid (pH 7.4), 6 mM magnesium chloride, and 2 mg/mL bovine serum albumin, a test compound was added, and the final concentration of dimethyl sulfoxide was adjusted to 0.3%. Moreover, 2-monooleoyl glycerol, oleoyl CoA, 1-^14C-oleoyl CoA (Perkin Elmer), and orlistat (SIGMA) were added at final concentrations of 50 μM, 50 μM, 2.2 μM, and 8.3 μM, respectively, followed by incubation at 37° C. for 10 minutes. After 10 minutes, the recombinant human MGAT2 enzyme solution was added at a final concentration of 0.67 μg/mL, and the reaction was started, with the amount of the reaction solution being 150 μl. The reaction was carried out at 37° C. for 30 minutes.
After 30 minutes, the reaction was stopped by adding 300 μl of isopropanol:heptane:water=(80:20:2) to the reaction liquid. Further, 200 μl of heptane and 100 μl of water were added, followed by stirring. Then, 100 μl of the upper layer was transferred to a 96-well plate (Corning), and mixed with 100 μl of liquid scintillator (LumaSafe Plus, Lumac). Then, the ^14C count was quantitatively determined using TopCount NXT™ microplate scintillation luminescence counter (Perkin Elmer).
The ^14C count in a case where no test compound was added was defined as A, the ^14C count in a case where 10 μM of the compound (Comparative Example 1) of Example No. 8 of WO2008/038768 was added was defined as B, and the ^14C count in the case where the test compound was added was taken as C. For this case, {1−(C−B)/(A−B)}×100(%) was calculated as the human MGAT2 activity inhibition ratio of the test compound (shown in the column named vs Comp. Ex. 1 in the following Table). A greater value of the “vs Comparative Example 1” means that the MGAT2 activity inhibitory action of the compound of Example was higher as compared to the MGAT2 activity inhibitory action of the compound of Comparative Example 1 (i.e., the human MGAT2 activity inhibition ratio was higher). […] Since this evaluation test was conducted for two separate groups, the test results of the two groups are shown separately in Table (First Test) and Table 4 (Second Test).
Next, the compounds of Examples 25 to 60 of the present invention were also investigated for their pharmacological action by using the same method as in Examples 1 to 24. […] Note that, a comparative evaluation test against the compound of Comparative Example 1 was conducted for each of the compounds of Examples (in every measurement of the inhibitory activity of the compounds of Examples 25 to 60, the inhibitory activity of the compound of Comparative Example 1 was measured). The 50% inhibition concentrations of Comparative Example 1 in the measurement of the inhibitory activities of the compounds of Examples 25 to 60 were shown in Table 5 as “IC50 (nM) of Comparative Example 1.”

[1] abbreviates: Table 5, Examples 25 to 60, same method.
The mark [2] stands for this setting: Table 5, relative to Comparative Example 1 measured in the same run.
Where [3] appears, read: First Test (Table 3), relative to Comparative Example 1, greater value = higher inhibitory action.
Setting [4] is: Second Test (Table 4), relative to Comparative Example 1.

Molecules are shown by their SMILES. Structures can show the parent of a compound that is named as a salt. Where two headings read alike, the source gives them in different places.

T1 sequence (Q3SYC2 whole entry): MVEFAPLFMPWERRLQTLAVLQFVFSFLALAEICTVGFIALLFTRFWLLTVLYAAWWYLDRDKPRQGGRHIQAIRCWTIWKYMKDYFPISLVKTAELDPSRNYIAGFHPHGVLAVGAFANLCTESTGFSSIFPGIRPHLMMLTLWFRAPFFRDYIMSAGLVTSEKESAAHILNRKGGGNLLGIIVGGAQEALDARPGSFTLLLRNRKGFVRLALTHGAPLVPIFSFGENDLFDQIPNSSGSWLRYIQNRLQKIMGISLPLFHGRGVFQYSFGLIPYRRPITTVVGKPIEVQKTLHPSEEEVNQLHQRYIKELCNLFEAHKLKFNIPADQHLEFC

A word on the IC50: it is the midpoint of a concentration-inhibition curve. `O=C(CCNCCCCCOc1ccc(C(F)(F)F)cc1)N1CCc2nc(SC3CCC3)n(-c3ccccc3)c(=O)c2C1` [Example 33, 2-cyclobutylsulfanyl-3-phenyl-6-[3-[5-[4-(trifluoromethyl)phenoxy]pentylamino]propanoyl]-7,8-dihydro-5H-pyrido[4,3-d]pyrimidin-4-one trifluoroacetate]: the IC50 under setting [1] came out at 0.8 nM. Moreover, the “Potency relative to Comparative Example 1 (higher = more potent)” value under setting [2] was 228.

For the compound `O=C(CNCc1ccc(C(F)(F)F)cc1)N1CCc2nc(SC3CCC3)n(-c3ccccc3)c(=O)c2C1` [Example 1, 2-cyclobutylsulfanyl-3-phenyl-6-[2-[[4-(trifluoromethyl)phenyl]methylamino]acetyl]-7,8-dihydro-5H-pyrido[4,3-d]pyrimidin-4-one trifluoroacetate], the IC50 (First Test (Table 3)) turned out to be 4.1 nM. In addition, the “Potency relative to Comparative Example 1 (higher = more potent)” value under setting [3] is recorded as 54.

For `C[C@H](NCCC(=O)N1CCc2nc(SC3CCC3)n(-c3ccccc3)c(=O)c2C1)c1ccccc1` [Example 42, 2-cyclobutylsulfanyl-3-phenyl-6-[3-[[(1S)-1-phenylethyl]amino]propanoyl]-7,8-dihydro-5H-pyrido[4,3-d]pyrimidin-4-one trifluoroacetate], under setting [1], the IC50 is 1.2 nM.

`O=C(CCNCc1ccccc1F)N1CCc2nc(SC3CCC3)n(-c3ccccc3)c(=O)c2C1` [Example 18, 2-cyclobutylsulfanyl-6-[3-[(2-fluorophenyl)methylammino]propanoyl]-3-phenyl-7,8-dihydro-5H-pyrido[4,3-d]pyrimidin-4-one trifluoroacetate]: the IC50 (Second Test (Table 4)) was found to be 2.3 nM. For the same compound, the “Potency relative to Comparative Example 1 (higher = more potent)” value under setting [4] was determined as 134.

As to `C[C@@H](CNCCC(=O)N1CCc2nc(SC3CCC3)n(-c3ccccc3)c(=O)c2C1)c1ccccc1` [Example 36], the IC50 under setting [1] was found to be 0.7 nM. The “Potency relative to Comparative Example 1 (higher = more potent)” value under setting [2] is reported as 205.

As for `C[C@@H](NCCC(=O)N1CCc2nc(SC3CCC3)n(-c3ccccc3)c(=O)c2C1)c1ccccc1` [Example 41, 2-cyclobutylsulfanyl-3-phenyl-6-[3-[[(1R)-1-phenylethyl]amino]propanoyl]-7,8-dihydro-5H-pyrido[4,3-d]pyrimidin-4-one trifluoroacetate], the IC50 under setting [1] was determined as 1.1 nM.

With `O=C(CCNCc1ccc(OC(F)(F)F)cc1)N1CCc2nc(SC3CCC3)n(-c3ccccc3)c(=O)c2C1` [Example 24, 2-cyclobutylsulfanyl-3-phenyl-6-[3-[[4-(trifluoromethoxy)phenyl]methylamino]propanoyl]-7,8-dihydro-5H-pyrido[4,3-d]pyrimidin-4-one trifluoroacetate)], the IC50 (Second Test (Table 4)) came to 1.4 nM. Also, the “Potency relative to Comparative Example 1 (higher = more potent)” value under setting [4] was determined as 221.

Consider `O=C(CNCc1ccc(OCc2ccc(C(F)(F)F)cc2)cc1)N1CCc2nc(SC3CCC3)n(-c3ccccc3)c(=O)c2C1` [Example 6, 2-cyclobutylsulfanyl-3-phenyl-6-[2-[[4-[[4-(trifluoromethyl)phenyl]methoxy]phenyl]methylamino]acetyl]-7,8-dihydro-5H-pyrido[4,3-d]pyrimidin-4-one hydrate trifluoroacetate], for which, under “First Test (Table 3)”, the IC50 is 1.6 nM. Besides, the “Potency relative to Comparative Example 1 (higher = more potent)” value under setting [3] is on record as 144.

On to `O=C(CNCCCOc1ccc(F)cc1)N1CCc2nc(SC3CCC3)n(-c3ccccc3)c(=O)c2C1` [Example 50, 2-cyclobutylsulfanyl-6-[2-[3-(4-fluorophenoxy)propylamino]acetyl]-3-phenyl-7,8-dihydro-5H-pyrido[4,3-d]pyrimidin-4-one trifluoroacetate], for which the 50% inhibitory concentration (IC50) under setting [1] was determined as 3.7 nM. The “Potency relative to Comparative Example 1 (higher = more potent)” value under setting [2] is recorded as 73.

Consider `O=C(CCNCc1ccsc1)N1CCc2nc(SC3CCC3)n(-c3ccccc3)c(=O)c2C1` [Example 16, 2-cyclobutylsulfanyl-3-phenyl-6-[3-(3-thienylmeethylamino)propanoyl]-7,8-dihydro-5H-pyrido[4,3-d]pyrimidin-4-one trifluoroacetate], for which the IC50 (Second Test (Table 4)) turned out to be 1.8 nM. Also, the “Potency relative to Comparative Example 1 (higher = more potent)” value under setting [4] amounted to 173.

For `CN(C)c1ccc(CNCCC(=O)N2CCc3nc(SC4CCC4)n(-c4ccccc4)c(=O)c3C2)cc1` [Example 31, 2-cyclobutylsulfanyl-6-[3-[(4-dimethylaminophenyl)methylamino]propanoyl]-3-phenyl-7,8-dihydro-5H-pyrido[4,3-d]pyrimidin-4-one trifluoroacetate], under setting [1], the half-inhibitory concentration (IC50) came to 1.6 nM. For the same compound, under setting [2], the “Potency relative to Comparative Example 1 (higher = more potent)” value came to 130.

`O=C(CNCCOc1ccc(F)cc1)N1CCc2nc(SC3CCC3)n(-c3ccccc3)c(=O)c2C1` [Example 51, 2-cyclobutylsulfanyl-6-[2-[2-(4-fluorophenoxy)ethylamino]acetyl]-3-phenyl-7,8-dihydro-5H-pyrido[4,3-d]pyrimidin-4-one trifluoroacetate]: the IC50 under setting [1] was found to be 4.2 nM. Besides, the “Potency relative to Comparative Example 1 (higher = more potent)” value under setting [2] came to 64.

Take `O=C(CCNCC1CCCC(C(F)(F)F)C1)N1CCc2nc(SC3CCC3)n(-c3ccccc3)c(=O)c2C1` (stereo not shown) [Example 39, 2-cyclobutylsulfanyl-3-phenyl-6-[3-[[3-(trifluoromethyl)cyclohexyl]methylamino]propanoyl]-7,8-dihydro-5H-pyrido[4,3-d]pyrimidin-4-one trifluoroacetate]: the IC50 under setting [1] stood at 0.4 nM. Besides, the “Potency relative to Comparative Example 1 (higher = more potent)” value under setting [2] was 320.

Consider `O=C(CCNCc1ccc2c(c1)OCO2)N1CCc2nc(SC3CCC3)n(-c3ccccc3)c(=O)c2C1` [Example 28, 6-[3-(1,3-benzodioxol-5-ylmethylamino)propanoyl]-2-cyclobutylsulfanyl-3-phenyl-7,8-dihydro-5H-pyrido[4,3-d]pyrimidin-4-one trifluoroacetate], for which, under setting [1], the IC50 worked out at 1.7 nM. Besides, the “Potency relative to Comparative Example 1 (higher = more potent)” value under setting [2] is recorded as 125.

As for `O=C(CCNCc1nnc(Cc2ccc(C(F)(F)F)cc2)o1)N1CCc2nc(SC3CCC3)n(-c3ccccc3)c(=O)c2C1` [Example 56, 2-cyclobutylsulfanyl[-3-phenyl-6-[3-[5-[[4-(trifluoromethyl)phenyl]methyl]-1,3,4-oxadiazol-2-yl]methylamino]propanoyl]-7,8-dihydro-5H-pyrido[4,3-d]pyrimidin-4-one trifluoroacetate], the IC50 under setting [1] turned out to be 5.8 nM. The “Potency relative to Comparative Example 1 (higher = more potent)” value under setting [2] is listed as 35.

`O=C(CCNCC(O)COc1ccc(F)cc1)N1CCc2nc(SC3CCC3)n(-c3ccccc3)c(=O)c2C1` (stereo not shown) [Example 44, trifluoroacetate]: the IC50 under setting [1] came to 1.8 nM. Moreover, the “Potency relative to Comparative Example 1 (higher = more potent)” value under setting [2] came out at 135.

With `O=C(CCNCc1c(F)cccc1F)N1CCc2nc(SC3CCC3)n(-c3ccccc3)c(=O)c2C1` [Example 35, 2-cyclobutylsulfanyl-6-[3-[(2,6-difluorophenyl)methylamino]propanoyl]-3-phenyl-7,8-dihydro-5H-pyrido[4,3-d]pyrimidin-4-one trifluoroacetate], the IC50 under setting [1] was 1.1 nM. Also, the “Potency relative to Comparative Example 1 (higher = more potent)” value under setting [2] is given as 130.

Consider `O=C(CNCc1ccc(Cl)cc1)N1CCc2nc(SC3CCC3)n(-c3ccccc3)c(=O)c2C1` [Example 3, 6-[2-[(4-chlorophenyl)methylamino]acetyl]-2-cyclobutylsulfanyl-3-phenyl-7,8-dihydro-5H-pyrido[4,3-d]pyrimidin-4-one trifluoroacetate], for which, under “First Test (Table 3)”, the half-inhibitory concentration (IC50) stood at 3.7 nM. In addition, under setting [3], the “Potency relative to Comparative Example 1 (higher = more potent)” value is 60.
